From article PMC5399312 (Journal of Experimental & Clinical Cancer Research : CR, 2017)

Key:
[1] = system: SW480 xenograft tumor tissues; assay: TUNEL and H&E staining assay; assay type: in vivo; conditions: versus vehicle control
Protocol: Apoptosis of tumor tissues was detected by terminal deoxynucleotidyl transferase (TdT)-mediated dUTP-biotin nick end labeling (TUNEL) stain, using an In Situ Cell Death Detection Kit (Roche, Switzerland). The hematoxylin-eosin (H&E) staining was performed to observe the pathological changes in different groups.

[2] = system: SW480 cells; assay: Cell proliferation assay (CCK-8); assay type: cell-based, human; conditions: 100, 200, 400 μM, 24-96 h
Protocol: (§1) HCT116 and SW480 cells were seeded at a density of 2 × 10^3 per well into 96-well plates. Cell proliferation was assessed by incubating them with Cell Counting Kit-8 reagents (Dojindo, Shanghai, China) for 24 h,48 h, 72 h, 96 h at 37 °C and measuring the absorbance at 450 nm. The experiment was performed in triplicate.

[3] = system: HCT116 cells; assay: Cell proliferation assay (CCK-8); assay type: cell-based, human; conditions: 100, 200, 400 μM, 24-96 h
Protocol: as §1

[4] = system: SW480 cells; assay: Soft agar colony formation assay; assay type: cell-based, human; conditions: 100 μM
Protocol: About 0.6% agar was poured into the six-well plate. […] Media was changed every three days, and colonies were further observed for 10 days. Colonies were then stained with 0.01% of crystal violet staining solution for 2 h.

[5] = target: T1, HK4 (Homo sapiens, UniProt P35557); assay: In vitro enzyme inhibition assay (G6P-DH coupled, NADH 340 nm); assay type: biochemical; conditions: recombinant HK4
T1 construct: made in house; host or cells: E. coli BL21 (DE3)
T1 sequence (P35557 1-465): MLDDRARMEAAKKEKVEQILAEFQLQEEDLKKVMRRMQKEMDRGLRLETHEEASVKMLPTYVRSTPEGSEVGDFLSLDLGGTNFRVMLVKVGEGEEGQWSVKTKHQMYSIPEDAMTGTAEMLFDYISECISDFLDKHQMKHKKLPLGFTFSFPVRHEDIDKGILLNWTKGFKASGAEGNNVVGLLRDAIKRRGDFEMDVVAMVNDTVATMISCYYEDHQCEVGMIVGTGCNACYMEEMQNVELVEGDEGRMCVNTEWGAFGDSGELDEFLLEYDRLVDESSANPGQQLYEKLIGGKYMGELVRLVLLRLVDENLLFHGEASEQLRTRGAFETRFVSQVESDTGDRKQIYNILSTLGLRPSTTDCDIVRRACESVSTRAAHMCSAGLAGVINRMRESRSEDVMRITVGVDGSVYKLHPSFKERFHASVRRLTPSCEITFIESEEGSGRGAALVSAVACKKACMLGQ
Protocol: (§2) Then 85 μL assay mix containing 100 mM Tris HCl pH 8.0, 5 mM MgCl2, 200 mM Glucose, 0.8 mM ATP, 1 mM NAD^+, 0.25 Units of G6P-DH, was added.

[6] = target: T2, HK1 (Homo sapiens, UniProt P19367); assay: as above; assay type: biochemical; conditions: recombinant HK1
T2 construct: purchased Shanghai yuanye Bio-Technology Co., Ltd (China)
T2 sequence (P19367 1-917): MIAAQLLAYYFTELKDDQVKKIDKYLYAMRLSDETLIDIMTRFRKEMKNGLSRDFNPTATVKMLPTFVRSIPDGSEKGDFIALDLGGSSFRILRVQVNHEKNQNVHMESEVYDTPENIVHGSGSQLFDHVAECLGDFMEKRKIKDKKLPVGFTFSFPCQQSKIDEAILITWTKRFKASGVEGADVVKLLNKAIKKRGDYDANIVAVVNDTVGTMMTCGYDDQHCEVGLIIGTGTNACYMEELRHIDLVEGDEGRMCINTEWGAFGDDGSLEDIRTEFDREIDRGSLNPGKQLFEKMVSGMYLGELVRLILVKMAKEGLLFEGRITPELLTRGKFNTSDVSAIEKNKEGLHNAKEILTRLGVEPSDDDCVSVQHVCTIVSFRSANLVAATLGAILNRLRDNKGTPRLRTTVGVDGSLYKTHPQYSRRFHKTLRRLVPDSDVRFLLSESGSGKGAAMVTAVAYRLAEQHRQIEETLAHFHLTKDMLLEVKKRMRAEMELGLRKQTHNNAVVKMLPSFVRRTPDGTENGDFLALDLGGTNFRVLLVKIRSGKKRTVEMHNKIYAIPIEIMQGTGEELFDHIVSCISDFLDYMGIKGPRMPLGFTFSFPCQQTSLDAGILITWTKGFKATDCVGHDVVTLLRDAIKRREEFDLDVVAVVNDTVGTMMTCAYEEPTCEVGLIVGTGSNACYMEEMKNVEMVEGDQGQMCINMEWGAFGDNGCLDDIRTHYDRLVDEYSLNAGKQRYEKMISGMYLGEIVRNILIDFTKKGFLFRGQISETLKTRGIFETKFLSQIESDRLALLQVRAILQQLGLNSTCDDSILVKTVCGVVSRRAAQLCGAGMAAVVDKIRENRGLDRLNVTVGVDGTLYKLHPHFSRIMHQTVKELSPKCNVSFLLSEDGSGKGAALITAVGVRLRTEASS
Protocol: as §2

[7] = target: T3, HK2 (Homo sapiens, UniProt P52789); assay: as above; assay type: biochemical; conditions: recombinant HK2; n.i means no enzyme inhibition; read-out: Enzyme IC50
T3 construct: made in house; host or cells: E. coli BL21 (DE3)
T3 sequence (P52789 1-917): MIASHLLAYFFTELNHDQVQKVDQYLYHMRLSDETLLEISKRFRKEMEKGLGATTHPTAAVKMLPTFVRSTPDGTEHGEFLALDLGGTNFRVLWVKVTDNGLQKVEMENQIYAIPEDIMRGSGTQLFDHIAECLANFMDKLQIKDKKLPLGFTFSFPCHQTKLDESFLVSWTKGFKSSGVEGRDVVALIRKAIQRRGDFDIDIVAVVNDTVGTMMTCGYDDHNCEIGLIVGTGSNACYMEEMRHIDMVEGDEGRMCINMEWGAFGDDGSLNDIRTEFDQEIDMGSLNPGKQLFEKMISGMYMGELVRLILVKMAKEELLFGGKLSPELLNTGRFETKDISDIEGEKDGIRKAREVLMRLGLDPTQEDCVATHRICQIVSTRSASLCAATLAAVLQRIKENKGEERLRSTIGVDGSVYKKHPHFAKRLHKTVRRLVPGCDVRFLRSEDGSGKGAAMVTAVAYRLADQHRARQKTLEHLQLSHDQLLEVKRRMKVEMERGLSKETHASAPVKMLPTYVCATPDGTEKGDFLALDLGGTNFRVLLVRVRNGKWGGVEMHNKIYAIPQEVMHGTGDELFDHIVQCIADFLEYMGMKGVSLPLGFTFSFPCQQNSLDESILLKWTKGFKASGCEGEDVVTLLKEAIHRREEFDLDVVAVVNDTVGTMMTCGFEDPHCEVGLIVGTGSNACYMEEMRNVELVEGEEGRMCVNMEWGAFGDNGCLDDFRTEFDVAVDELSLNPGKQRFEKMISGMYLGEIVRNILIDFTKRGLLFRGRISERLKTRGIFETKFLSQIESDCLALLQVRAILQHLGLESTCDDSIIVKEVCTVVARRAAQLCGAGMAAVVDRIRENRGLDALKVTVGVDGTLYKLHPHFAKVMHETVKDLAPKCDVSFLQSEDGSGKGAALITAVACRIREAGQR
Protocol: as §2

With `NC(CO)C(=O)NNCc1ccc(O)c(O)c1O` (stereo not shown) [Benz, Benserazide] the “tumor apoptosis and pathological changes (TUNEL, H&E)” value [1] was “induced tumor apoptosis and pathological changes”, the cell proliferation [2] was “markedly inhibited proliferation” and the cell proliferation [3] was “markedly inhibited proliferation”. For the same compound, the “anchorage-independent growth (colony formation)” value [4] was “dramatically reduced the ability to form colonies”, the IC50 [5] was 40.5 ± 2.94 µM and the IC50 [6] was 25.13 ± 0.24 µM. It also gave an IC50 [7] of 5.52 ± 0.17 µM.
